“Also recorded” adds a separate entry of the source. Read-outs that look alike come from different tables or passages of the source.
Tests used:
[1] = test system: renal carcinoma xenograft No.20090223; assay: Patient-derived renal carcinoma xenograft No.20090223; assay type: in vivo, nude mice
VEGFR2 [2] = target: T1, VEGFR2 (Homo sapiens, UniProt P35968); assay type: biochemical; conditions: varying concentrations of ATP
Target sequence in this assay (P35968 834-1162 limits assumed): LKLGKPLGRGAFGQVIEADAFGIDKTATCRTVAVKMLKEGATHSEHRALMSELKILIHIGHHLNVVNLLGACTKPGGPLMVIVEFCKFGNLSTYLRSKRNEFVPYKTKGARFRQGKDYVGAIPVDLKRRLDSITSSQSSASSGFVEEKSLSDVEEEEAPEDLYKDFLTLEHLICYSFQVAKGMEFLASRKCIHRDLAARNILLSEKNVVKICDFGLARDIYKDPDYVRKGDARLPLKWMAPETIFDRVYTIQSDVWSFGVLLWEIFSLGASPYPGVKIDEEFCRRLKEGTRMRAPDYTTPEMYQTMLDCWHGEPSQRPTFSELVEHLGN

PDGFRα [3] = target: T2, PDGFRα (Homo sapiens, UniProt P16234); conditions: read-out: IC50 PDGFRα phosphorylation in vitro assay; ref 17 Bello et al.; cited from earlier work
T2 sequence (P16234 24-1089, species assumed): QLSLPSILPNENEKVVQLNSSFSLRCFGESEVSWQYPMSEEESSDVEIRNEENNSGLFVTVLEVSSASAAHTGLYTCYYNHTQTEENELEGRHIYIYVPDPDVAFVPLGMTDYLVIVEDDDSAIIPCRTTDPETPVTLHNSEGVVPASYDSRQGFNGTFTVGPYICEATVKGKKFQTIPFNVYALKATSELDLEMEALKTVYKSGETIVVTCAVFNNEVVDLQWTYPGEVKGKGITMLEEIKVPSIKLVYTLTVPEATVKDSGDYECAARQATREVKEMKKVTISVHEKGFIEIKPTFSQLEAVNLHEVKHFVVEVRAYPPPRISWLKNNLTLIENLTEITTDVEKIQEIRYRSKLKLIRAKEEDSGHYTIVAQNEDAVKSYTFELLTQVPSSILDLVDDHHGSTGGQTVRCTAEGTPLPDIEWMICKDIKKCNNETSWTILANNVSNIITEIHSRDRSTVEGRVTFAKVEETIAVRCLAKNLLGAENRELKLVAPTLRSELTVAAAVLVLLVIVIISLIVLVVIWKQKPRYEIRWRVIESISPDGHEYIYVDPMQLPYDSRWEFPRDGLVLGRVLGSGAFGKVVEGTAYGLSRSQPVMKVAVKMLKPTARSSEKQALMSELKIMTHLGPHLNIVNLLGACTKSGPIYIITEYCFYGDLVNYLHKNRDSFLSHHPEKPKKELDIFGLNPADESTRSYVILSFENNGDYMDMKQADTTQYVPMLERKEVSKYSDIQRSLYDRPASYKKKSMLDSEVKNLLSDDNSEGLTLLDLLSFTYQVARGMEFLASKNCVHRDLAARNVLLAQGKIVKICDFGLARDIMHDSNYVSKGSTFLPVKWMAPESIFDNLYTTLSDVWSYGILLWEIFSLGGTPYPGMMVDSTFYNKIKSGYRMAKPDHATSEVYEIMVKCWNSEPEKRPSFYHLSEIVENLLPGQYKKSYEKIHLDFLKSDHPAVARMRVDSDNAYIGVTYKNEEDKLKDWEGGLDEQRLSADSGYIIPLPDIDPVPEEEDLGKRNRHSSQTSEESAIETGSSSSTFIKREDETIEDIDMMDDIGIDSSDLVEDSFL

VEGFR1 = VEGFR1 (Homo sapiens, UniProt P17948); assay: ELISA kinase assay VEGFR1; assay type: biochemical
[4] = test system: 786-O renal carcinoma xenograft; assay: Tumour xenograft 786-O; assay type: in vivo, nude mice; conditions: 786-O model, dosages below 20 mg/kg
VEGFR2 [5] = target: T1, VEGFR2
Target sequence in this assay (P35968 20-1356): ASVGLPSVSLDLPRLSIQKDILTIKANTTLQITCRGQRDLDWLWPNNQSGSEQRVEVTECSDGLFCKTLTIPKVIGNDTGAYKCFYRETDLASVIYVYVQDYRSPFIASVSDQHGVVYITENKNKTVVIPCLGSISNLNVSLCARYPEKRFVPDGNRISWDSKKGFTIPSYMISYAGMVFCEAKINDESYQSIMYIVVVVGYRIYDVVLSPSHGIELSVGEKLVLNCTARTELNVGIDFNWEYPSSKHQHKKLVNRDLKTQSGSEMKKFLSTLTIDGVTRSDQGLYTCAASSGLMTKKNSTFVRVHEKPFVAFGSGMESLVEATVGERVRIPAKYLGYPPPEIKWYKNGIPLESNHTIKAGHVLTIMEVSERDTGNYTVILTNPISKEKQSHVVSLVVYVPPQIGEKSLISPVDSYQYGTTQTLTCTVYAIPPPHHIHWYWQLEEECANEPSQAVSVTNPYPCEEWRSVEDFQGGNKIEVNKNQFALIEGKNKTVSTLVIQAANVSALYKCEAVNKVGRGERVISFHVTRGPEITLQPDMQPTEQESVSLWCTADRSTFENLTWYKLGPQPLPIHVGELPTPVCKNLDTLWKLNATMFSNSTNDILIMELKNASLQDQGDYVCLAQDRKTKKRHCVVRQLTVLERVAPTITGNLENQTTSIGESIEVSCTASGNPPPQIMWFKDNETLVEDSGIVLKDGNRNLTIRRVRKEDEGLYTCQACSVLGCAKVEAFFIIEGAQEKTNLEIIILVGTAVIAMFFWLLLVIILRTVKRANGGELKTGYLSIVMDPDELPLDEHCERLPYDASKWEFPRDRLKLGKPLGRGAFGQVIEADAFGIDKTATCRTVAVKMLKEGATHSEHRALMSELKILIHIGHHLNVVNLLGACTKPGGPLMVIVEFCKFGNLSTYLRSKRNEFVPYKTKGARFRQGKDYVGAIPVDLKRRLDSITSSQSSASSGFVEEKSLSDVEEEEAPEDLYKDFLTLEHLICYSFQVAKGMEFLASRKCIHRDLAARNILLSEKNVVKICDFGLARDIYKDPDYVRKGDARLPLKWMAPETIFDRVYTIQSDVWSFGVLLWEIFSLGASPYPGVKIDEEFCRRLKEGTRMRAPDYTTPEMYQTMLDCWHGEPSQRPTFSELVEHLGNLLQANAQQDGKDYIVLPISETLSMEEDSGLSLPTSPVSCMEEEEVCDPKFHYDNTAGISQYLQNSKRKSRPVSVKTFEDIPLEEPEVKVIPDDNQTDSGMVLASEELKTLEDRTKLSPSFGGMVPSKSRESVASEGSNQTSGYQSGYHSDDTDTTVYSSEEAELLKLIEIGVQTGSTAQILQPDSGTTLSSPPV

[6] = Toxicity observed in panel of human xenograft models; assay type: in vivo, nude mice; conditions: p.o., 5 days per week, 5–20 mg/kg
[7] = test system: renal carcinoma xenograft (No.213847); assay: PDGFRβ immunohistochemistry of tumour pericytes; assay type: in vivo, nude mice; conditions: 5 days
[8] = test system: chicken chorioallantoic membrane; assay: Chicken chorioallantoic membrane assay; assay type: in vivo; conditions: 48 hrs
VEGFR2 [9] = target: T1, VEGFR2; assay: Cellular VEGFR2 autophosphorylation reversible assay; assay type: cell-based; conditions: HUVEC, 1 μmol/L for 4 hrs
Target sequence in this assay (P35968 20-1356): as above

VEGFR2 [10] = target: T1, VEGFR2; assay: biochemical
Target sequence in this assay (P35968 834-1162 limits assumed): as the sequence (P35968 834-1162 limits assumed) above

[11] = test system: Bxpc-3 pancreatic cancer xenograft; assay: Tumour xenograft Bxpc-3; assay type: in vivo, nude mice; conditions: Bxpc-3 model, dosages below 20 mg/kg
HUVEC cells [12] = assay: b-FGF-driven HUVEC proliferation; assay type: cell-based; conditions: Homo sapiens, read-out: IC50 bFGF-driven HUVECs proliferation
EPH-B2 = EPH-B2 (Homo sapiens, UniProt P29323); assay: ELISA kinase assay EPH-B2; assay type: biochemical
c-Src = c-Src (Homo sapiens, UniProt P12931); assay: biochemical
ERK1/2 and AKT = assay: VEGF-induced activation of ERK1/2 and AKT; assay type: cell-based; conditions: VEGF165 50 ng/ml
PDGFRβ [13] = target: PDGFRβ (Mus musculus, UniProt P05622); assay: PDGFBB-induced PDGFRβ autophosphorylation in Swiss3T3; assay type: cell-based, rat
PDGFRβ (Mus musculus, UniProt P05622), sequence (P05622 32-1098): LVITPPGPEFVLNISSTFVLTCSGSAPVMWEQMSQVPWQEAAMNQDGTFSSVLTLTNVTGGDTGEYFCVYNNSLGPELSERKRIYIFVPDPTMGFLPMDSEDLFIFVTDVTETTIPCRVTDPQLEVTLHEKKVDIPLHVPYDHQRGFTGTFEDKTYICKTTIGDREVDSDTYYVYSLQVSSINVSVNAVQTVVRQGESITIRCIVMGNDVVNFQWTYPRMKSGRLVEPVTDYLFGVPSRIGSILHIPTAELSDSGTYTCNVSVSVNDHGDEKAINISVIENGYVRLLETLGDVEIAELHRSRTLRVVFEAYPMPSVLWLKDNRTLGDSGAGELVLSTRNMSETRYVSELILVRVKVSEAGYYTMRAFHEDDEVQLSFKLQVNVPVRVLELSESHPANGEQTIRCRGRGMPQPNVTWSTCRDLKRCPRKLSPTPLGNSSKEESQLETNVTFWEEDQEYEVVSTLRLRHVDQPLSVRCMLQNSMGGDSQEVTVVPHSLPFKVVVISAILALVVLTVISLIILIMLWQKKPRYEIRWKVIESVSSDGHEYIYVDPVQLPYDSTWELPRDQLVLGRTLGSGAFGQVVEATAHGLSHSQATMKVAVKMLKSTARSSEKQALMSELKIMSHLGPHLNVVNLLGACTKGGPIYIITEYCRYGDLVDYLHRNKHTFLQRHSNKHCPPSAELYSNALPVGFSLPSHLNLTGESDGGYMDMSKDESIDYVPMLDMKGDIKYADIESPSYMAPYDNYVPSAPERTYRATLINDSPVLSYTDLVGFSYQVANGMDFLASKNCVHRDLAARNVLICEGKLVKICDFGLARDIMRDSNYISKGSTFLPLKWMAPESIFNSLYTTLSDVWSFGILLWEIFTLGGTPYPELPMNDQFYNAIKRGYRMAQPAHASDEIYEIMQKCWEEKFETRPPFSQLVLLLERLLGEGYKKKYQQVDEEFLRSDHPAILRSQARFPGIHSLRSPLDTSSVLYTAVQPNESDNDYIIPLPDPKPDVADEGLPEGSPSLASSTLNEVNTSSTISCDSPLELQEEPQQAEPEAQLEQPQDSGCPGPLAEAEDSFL

[14] = test system: renal carcinoma xenograft (No.213847); assay: CD31 immunohistochemistry of tumour microvessels; assay type: in vivo, nude mice; conditions: five consecutive days
EPH-A2 = EPH-A2 (Homo sapiens, UniProt P29317); assay: ELISA kinase assay EPH-A2; assay type: biochemical; conditions: IC50 EPHA2, ELISA
[15] = test system: 16 different tumour cell lines; assay: Tumour cell lines proliferation in vitro; assay type: cell-based; conditions: read-out: average IC50 against 16 tumour cell lines proliferation
VEGFR2 [16] = target: T1, VEGFR2; assay type: biochemical; conditions: pre-incubation 30 min., 100-fold dilution
Target sequence in this assay (P35968 834-1162 limits assumed): as the sequence (P35968 834-1162 limits assumed) above

PDGFRα [17] = target: T2, PDGFRα; assay: ELISA kinase assay PDGFRα; assay type: biochemical
[18] = Tissue distribution in tumour-bearing nude mice; assay type: in vivo; conditions: for concentration at 21 day: nude, mouse, oral, 10 mg/kg
FGFR1 [19] = target: T3, FGFR1 (Homo sapiens, UniProt P11362); conditions: molecular assay, versus sorafenib
FGFR1 [20] = target: T3, FGFR1; assay: biochemical
FGFR1 [21] = target: T3, FGFR1; assay: bFGF-induced FGFR1 autophosphorylation in HUVEC; assay type: cell-based; conditions: b-FGF 25 ng/ml
RET = RET (Homo sapiens, UniProt P07949); assay: ELISA kinase assay RET; assay type: biochemical
PDGFRβ [22] = target: T4, PDGFRβ (Homo sapiens, UniProt P09619); conditions: read-out: IC50 PDGFRβ phosphorylation in vitro assay; ref 17 Bello et al.; cited from earlier work
T4 sequence (P09619 33-1106, species assumed): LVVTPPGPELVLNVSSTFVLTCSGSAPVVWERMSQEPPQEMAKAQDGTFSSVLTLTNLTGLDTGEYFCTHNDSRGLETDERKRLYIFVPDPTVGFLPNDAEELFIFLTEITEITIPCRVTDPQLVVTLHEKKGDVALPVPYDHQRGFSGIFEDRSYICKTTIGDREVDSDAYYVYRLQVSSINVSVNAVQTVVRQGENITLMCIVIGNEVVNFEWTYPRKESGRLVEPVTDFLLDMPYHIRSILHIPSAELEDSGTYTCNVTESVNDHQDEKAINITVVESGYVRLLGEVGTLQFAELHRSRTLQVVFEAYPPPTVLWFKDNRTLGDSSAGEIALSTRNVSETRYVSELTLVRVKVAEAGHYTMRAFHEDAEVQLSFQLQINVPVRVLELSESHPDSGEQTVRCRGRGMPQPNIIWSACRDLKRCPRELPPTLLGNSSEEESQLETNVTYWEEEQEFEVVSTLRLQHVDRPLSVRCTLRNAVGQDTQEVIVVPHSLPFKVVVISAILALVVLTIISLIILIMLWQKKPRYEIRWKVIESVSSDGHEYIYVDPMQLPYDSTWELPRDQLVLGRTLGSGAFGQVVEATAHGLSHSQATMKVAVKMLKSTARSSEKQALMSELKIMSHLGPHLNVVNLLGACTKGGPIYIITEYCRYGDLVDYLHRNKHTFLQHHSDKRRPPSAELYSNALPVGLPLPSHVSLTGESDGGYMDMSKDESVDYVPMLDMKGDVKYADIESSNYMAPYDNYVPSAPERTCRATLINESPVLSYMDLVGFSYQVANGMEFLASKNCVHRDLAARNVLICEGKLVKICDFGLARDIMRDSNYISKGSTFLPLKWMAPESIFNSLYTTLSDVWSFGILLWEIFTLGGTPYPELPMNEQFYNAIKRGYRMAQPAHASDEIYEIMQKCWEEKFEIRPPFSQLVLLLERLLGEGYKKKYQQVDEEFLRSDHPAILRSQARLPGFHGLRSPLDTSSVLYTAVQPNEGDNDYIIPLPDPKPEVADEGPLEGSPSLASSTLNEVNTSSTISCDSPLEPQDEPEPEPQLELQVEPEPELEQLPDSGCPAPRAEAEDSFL

HUVEC cells [23] = assay: VEGF-driven HUVEC proliferation; assay type: cell-based; conditions: Homo sapiens, read-out: IC50 VEGF-driven HUVECs proliferation
[24] = Plasma pharmacokinetics after p.o. administration; assay type: in vivo, rats
[25] = test system: renal carcinoma xenograft No.213847; assay: Patient-derived renal carcinoma xenograft No.213847; assay type: in vivo, nude mice
PDGFRβ [26] = target: T4, PDGFRβ; assay: ELISA kinase assay PDGFRβ; assay type: biochemical
c-Kit = c-Kit (Homo sapiens, UniProt P10721); assay: ELISA kinase assay c-Kit; assay type: biochemical
[27] = day 21 versus first administration

CNC(=O)c1cccc2cc(Oc3ccnc4cc(OCC5(N)CC5)c(OC)cc34)ccc12 [AL3810, 6-[[7-[(1-aminocyclopropyl)methoxy]-6-methoxy-4-quinolyl]oxy]-N-methyl-naphthalene-1-carboxamide]
T/C ([1]; No.20090223, 5 mg/kg p.o., 5 days per week): 13.3% | tumour response ([1]; No.20090223, 10–20 mg/kg): tumour regression | mode of inhibition versus ATP (VEGFR2 [2]): ATP competitive | IC50 (PDGFRα [3]): 175 nM | IC50 (VEGFR1): 12 nM | tumour response [4]: tumour regression | Tyr996 phosphorylation of VEGFR2 (VEGFR2 [5]): inhibited | VEGFR2 autophosphorylation (VEGFR2 [5]): almost completely blocked | toxicity in xenograft-bearing mice [6]: no obvious toxicity observed | reduction of PDGFRβ positive cells ([7]; 5 mg/kg): 52% | reduction of PDGFRβ positive cells ([7]; 10 mg/kg): 73% | reduction of PDGFRβ positive cells ([7]; 20 mg/kg): 86% | inhibition rate of blood vessel numbers and branching ([8]; 0.3 nmol/egg): 45.4% | inhibition rate of blood vessel numbers and branching ([8]; 1 nmol/egg): 82.5% | VEGFR2 phosphorylation after inhibitor washout (VEGFR2 [9]; 6 hrs after removal): recovered substantially | VEGFR2 phosphorylation after inhibitor washout (VEGFR2 [9]; 24 hrs after washout): total restoration | IC50 (VEGFR2 [10]): 4 nM | tumour response [11]: tumour regression | IC50 (HUVEC cells [12]): 140 nM | IC50 (EPH-B2): 902 nM | IC50 (c-Src): 4900 nM | VEGF-induced activation of ERK1/2 and AKT (ERK1/2 and AKT): dramatically inhibited | PDGFBB-induced PDGFRβ autophosphorylation (PDGFRβ [13]; 100 nmol/l, Swiss3T3, PDGF-BB 40 ng/ml): inhibited; also recorded: almost completely block | reduction of vessel density (CD31) ([14]; 5 mg/kg): 45% | reduction of vessel density (CD31) ([14]; 10 mg/kg): 80% | reduction of vessel density (CD31) ([14]; 20 mg/kg): 90% | IC50 (EPH-A2): 6660 nM | IC50 [15]: ~18700 nM | reversibility of VEGFR2 inhibition (VEGFR2 [16]): reversible inhibitor | IC50 (PDGFRα [17]): 13 nM | exposure in liver, improvement versus first administration [18, 27]: 1.6 times | exposure in lung, improvement versus first administration [18, 27]: 1.4 times | exposure in renal tissue, improvement versus first administration [18, 27]: 2.1 times | exposure in tumours, improvement versus first administration [18, 27]: 2.9 times | concentration at 21 day ([18]; kidney): 398 ng/g | concentration at 21 day ([18]; liver): 276 ng/g | concentration at 21 day ([18]; lung): 208 ng/g | concentration at 21 day ([18]; plasma): 7.8 ng/mL | concentration at 21 day ([18]; tumour): 403 ng/g | IC50 against FGFR lower than sorafenib (FGFR1 [19]): 25 fold | IC50 (FGFR1 [20]): 7 nM | bFGF-induced FGFR1 autophosphorylation / activation (FGFR1 [21]): blocked | IC50 (RET): 200 nM | IC50 (PDGFRβ [22]): 525 nM | IC50 (HUVEC cells [23]): 42 nM | bioavailability ([24]; rat, in vivo, po): 31% | Tmax ([24]; rat, plasma, po, 10 mg): 6 h | concentration at 24 hrs ([24]; rat, plasma, po, 10 mg): < 50 ng/mL | maximal plasma concentration ([24]; rats, 10 mg p.o.): ~1000 ng/mL | T/C ([25]; No.213847, 5 mg/kg p.o., 5 days per week): 9.01% | tumour response ([25]; No.213847, 10–20 mg/kg): tumour regression | IC50 (PDGFRβ [26]): 8 nM | IC50 (c-Kit): 527 nM

CNC(=O)c1cc(Oc2ccc(NC(=O)Nc3ccc(Cl)c(C(F)(F)F)c3)cc2)ccn1 [Sorafenib, reference compound]
IC50 (HUVEC cells [12]): 2260 nM | PDGFRβ activation (PDGFRβ [13]; Swiss3T3, concentration not stated): potent inhibitory effects | bFGF-induced FGFR1 autophosphorylation / activation (FGFR1 [21]): potent inhibitory effects | IC50 (HUVEC cells [23]): 337 nM

From paper PMC3823425 (Journal of Cellular and Molecular Medicine, 2012)
